From patent US9120749B2, “Quinoline derivatives and MELK inhibitors containing the same” (ONCOTHERAPY SCIENCE, INC., priority 2010, dated 2015)

What was measured:
A549 cells = test: Cell-based assay: anti-proliferative activity, Cell Counting Kit-8, 72 hours (A549); settings: Homo sapiens, A549, 72 h, 72 hours
Outline: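 Cell Counting Kit-8 read-out of A549 growth after 72 hours of inhibitor exposure, cells plated in 96-well format. Values reported as IC50.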

DU4475 cells = test: Cell-based assay: anti-proliferative activity, Cell Counting Kit-8, 72 hours (DU4475); settings: Homo sapiens, DU-4475, 72 h
T47D cells = test: Cell-based assay: anti-proliferative activity, Cell Counting Kit-8, 72 hours (T47D); settings: Homo sapiens, T47D, 72 h
Outline: (§1)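 First, lysates underwent western blotting with anti-MELK antibody to establish expression. Next, cells went into 96-well plates. Then candidate inhibitors were added. Finally, viability was determined by CCK-8 at 72 h and IC50 computed.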

HT-1197 cells = test: Cell-based assay: anti-proliferative activity, Cell Counting Kit-8, 72 hours (HT-1197, negative control without MELK expression); settings: HT1197 cells (negative control, no MELK expression), 72 hours
Outline: as §1

MELK = MELK (Homo sapiens, UniProt Q14680); test: Kinase assay: MELK activity, phosphorylation of FITC-labeled histone H3 peptide measured by IMAP fluorescence polarization; type: biochemical; settings: read-out: IC50 (μM) (kinase assay)
Outline: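 Kinase reactions ran with or without test compound (final DMSO 1%) on a fluorescein-tagged H3 peptide. Progressive binding solution was added to terminate them. After a half-hour room-temperature incubation, polarization was measured.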

MELK, sequence (Q14680 whole entry, looked up): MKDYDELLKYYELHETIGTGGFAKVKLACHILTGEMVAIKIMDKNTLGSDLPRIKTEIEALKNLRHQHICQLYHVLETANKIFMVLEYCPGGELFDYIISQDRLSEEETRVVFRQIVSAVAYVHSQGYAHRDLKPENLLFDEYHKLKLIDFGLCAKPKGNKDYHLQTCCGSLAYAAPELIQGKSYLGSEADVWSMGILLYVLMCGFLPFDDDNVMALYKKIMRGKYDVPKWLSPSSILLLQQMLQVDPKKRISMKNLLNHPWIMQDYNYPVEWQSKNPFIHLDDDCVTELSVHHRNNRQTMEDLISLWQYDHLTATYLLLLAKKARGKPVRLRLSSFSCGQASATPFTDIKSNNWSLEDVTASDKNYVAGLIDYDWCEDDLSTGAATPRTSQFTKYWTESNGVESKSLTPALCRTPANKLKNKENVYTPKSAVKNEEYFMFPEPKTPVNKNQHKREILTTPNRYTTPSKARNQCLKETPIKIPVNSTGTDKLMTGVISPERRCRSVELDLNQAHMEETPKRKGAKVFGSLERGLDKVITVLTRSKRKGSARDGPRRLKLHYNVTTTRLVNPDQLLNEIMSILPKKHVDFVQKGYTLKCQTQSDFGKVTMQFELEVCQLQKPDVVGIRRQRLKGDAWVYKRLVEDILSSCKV

Row | Structure (SMILES) | IC50 (A549 cells) [µM] | IC50 (DU4475 cells) [µM] | IC50 (T47D cells) [µM] | IC50 (HT-1197 cells; Homo sapiens, HT1197, 72 h) [µM] | IC50 (MELK) [µM] | IC50 (HT-1197 cells) [µM]
1 | CC(=O)c1cnc2ccc(-c3cc(Cl)c(O)c(Cl)c3)cc2c1Nc1ccc2c(c1)CCC2N(C)C (stereo not shown) [Example 720, 1-(6-(3,5-dichloro-4-hydroxyphenyl)-4-((1-(dimethylamino)-2,3-dihydro-1H-inden-5-yl)amino)quinolin-3-yl)ethanone] | 0.063 | 0.032 | 0.059 | 0.38 | 0.0033 | 
2 | CN1CCCC(n2cc(Nc3c(C(=O)C4CC4)cnc4ccc(-c5cc(F)c(O)c(Cl)c5)cc34)cn2)C1 (stereo not shown) [Example 699, {6-(3-Chloro-5-fluoro-4-hydroxyphenyl)-4-[1-(1-methylpiperidin-3-yl)-1H-pyrazol-4-ylamino]quinolin-3-yl}(cyclopropyl)methanone] | 0.18 | 0.072 | 0.24 | 2.7 | 0.0026 | 
3 | CC(=O)c1cnc2ccc(-c3cc(Cl)c(O)c(Cl)c3)cc2c1Nc1cccc(CCN(C)C)c1 [Example 729, 1-{6-(3,5-Dichloro-4-hydroxyphenyl)-4-[3-(2-(dimethylamino)ethyl)phenylamino]quinolin-3-yl}ethanone] | 0.2 | 0.1 | 0.52 | 10 | 0.0022 | 
4 | CC(=O)c1cnc2ccc(-c3cc(Cl)c(O)c(Cl)c3)cc2c1Nc1ccc(CN2CCN(C)CC2)cc1 [Example 654, 1-(6-(3,5-dichloro-4-hydroxyphenyl)-4-(4-((4-methylpiperazin-1-yl)methyl)phenylamino)quinolin-3-yl)ethanone] | 0.19 | 0.11 | 0.091 | 8.7 | 0.0082 | 
5 | O=C(c1cnc2ccc(-c3cc(F)c(O)c(Cl)c3)cc2c1Nc1ccc(CN2CCCC2)nc1)C1CC1 [Example 672, (6-(3-chloro-5-fluoro-4-hydroxyphenyl)-4-(6-(pyrrolidin-1-ylmethyl)pyridin-3-ylamino)quinolin-3-yl)(cyclopropyl)methanone] | 0.17 | 0.16 | 0.39 | 3.2 | 0.014 | 
6 | CCC(=O)c1cnc2ccc(-c3cc(Cl)c(O)c(OC)c3)cc2c1N[C@H]1CC[C@H](CN(C)C)CC1 [Example 713] | 0.18 | 0.15 | 0.2 | 4.9 | 0.0024 | 
7 | O=C(c1cnc2ccc(-c3cc(F)c(O)c(Cl)c3)cc2c1N[C@H]1CC[C@H](CN2CCC(O)C2)CC1)C1CC1 (stereo partly drawn) [Example 631, (6-(3-chloro-5-fluoro-4-hydroxyphenyl)-4-((trans-4-((3-hydroxypyrrolidin-1-yl)methyl)cyclohexyl)amino)quinolin-3-yl)(cyclopropyl)methanone] | 0.17 | 0.055 | 0.074 | 0.85 | 0.0021 | 
8 | COc1cc(-c2ccc3ncc(C(=O)C4CC4)c(NC4CCNCC4)c3c2)cc(Cl)c1O [Example 727, (6-(3-chloro-4-hydroxy-5-methoxyphenyl)-4-(piperidin-4-ylamino)quinolin-3-yl)(cyclopropyl)methanone] | 0.19 | 0.14 | 0.37 | 1.1 | 0.0034 | 
9 | CCC(=O)c1cnc2ccc(-c3cc(Cl)c(O)c(Cl)c3)cc2c1N[C@H]1CC[C@H](CN(C)C)CC1 [Example 715, 1-(6-(3,5-dichloro-4-hydroxyphenyl)-4-((trans-4-((dimethylamino)methyl)cyclohexyl)amino)quinolin-3-yl)propan-1-one] | 0.11 | 0.046 | 0.087 | 0.84 | 0.0015 | 
10 | CC(=O)c1cnc2ccc(-c3cc(F)c(O)c(Cl)c3)cc2c1Nc1ccc(N2CCCC(N)C2)nc1 (stereo not shown) [Example 732, 1-(4-(6-(3-aminopiperidin-1-yl)pyridin-3-ylamino)-6-(3-chloro-5-fluoro-4-hydroxyphenyl)quinolin-3-yl)ethanone] | 0.0094 | 0.0099 | 0.0056 |  | 0.0017 | 0.18
11 | CC(=O)c1cnc2ccc(-c3cc(F)c(O)c(Cl)c3)cc2c1N[C@H]1CC[C@H](CN2CCCC2)CC1 [Example 731] | 0.17 | 0.13 | 0.11 | 1.3 | 0.0047 | 
12 | COc1cc(-c2ccc3ncc(C(=O)C4CC4)c(Nc4ccc(CN5CCN(C)CC5)nc4)c3c2)cc(Cl)c1O [Example 683, (6-(3-chloro-4-hydroxy-5-methoxyphenyl)-4-(6-((4-methylpiperazin-1-yl)methyl)pyridin-3-ylamino)quinolin-3-yl)(cyclopropyl)methanone] | 1.2 | 1.3 | 0.69 | 9.8 | 0.016 | 
13 | CC(=O)c1cnc2ccc(-c3cc(Cl)c(O)c(Cl)c3)cc2c1N[C@@H]1CC[C@@H](CN(C)C)C1 [Example 718, 1-(6-(3,5-dichloro-4-hydroxyphenyl)-4-((1R,3R)-3-((dimethylamino)methyl)cyclopentylamino)quinolin-3-yl)ethanone] | 0.44 | 0.19 | 0.36 | 2 | 0.0055 | 
14 | COc1cc(-c2ccc3ncc(C(=O)C4CC4)c(N[C@H]4CC[C@H](CN5CCC(O)C5)CC4)c3c2)cc(Cl)c1O (stereo partly shown) [Example 630] | 0.19 | 0.17 | 0.41 | 3.6 | 0.0023 | 
15 | COc1cc(-c2ccc3ncc(C(=O)C4CC4)c(Nc4ccc(CN5CCCC5)nc4)c3c2)cc(Cl)c1O [Example 659, (6-(3-chloro-4-hydroxy-5-methoxyphenyl)-4-(6-(pyrrolidin-1-ylmethyl)pyridin-3-ylamino)quinolin-3-yl)(cyclopropyl)methanone] | 0.32 | 0.28 | 0.6 | 7.3 | 0.013 | 
16 | N[C@@H]1CCCN(c2ccc(Nc3c(C(=O)C4CC4)cnc4ccc(-c5cc(F)c(O)c(Cl)c5)cc34)cn2)C1 [Example 651, (R)-(4-(6-(3-aminopiperidin-1-yl)pyridin-3-ylamino)-6-(3-chloro-5-fluoro-4-hydroxyphenyl)quinolin-3-yl)(cyclopropyl)methanone] | 0.0075 | 0.0071 | 0.0054 | 0.12 | 0.00076 | 
17 | O=C(c1cnc2ccc(-c3cc(F)c(O)c(Cl)c3)cc2c1Nc1ccc(NC2CCNC2)nc1)C1CC1 (stereo not shown) [Example 667, (6-(3-chloro-5-fluoro-4-hydroxyphenyl)-4-(6-(pyrrolidin-3-ylamino)pyridin-3-ylamino)quinolin-3-yl)(cyclopropyl)methanone] | 7.7 | 0.077 | 0.17 | 10 | 0.01 | 
18 | COc1cc(-c2ccc3ncc(C(=O)C4CC4)c(Nc4ccc(NCCO)nc4)c3c2)cc(Cl)c1O [Example 677, (6-(3-chloro-4-hydroxy-5-methoxyphenyl)-4-(6-(2-hydroxyethylamino)pyridin-3-ylamino)quinolin-3-yl)(cyclopropyl)methanone] | 0.36 | 0.38 | 0.33 | 1.5 | 0.014 | 
19 | CC(=O)c1cnc2ccc(-c3cc(F)c(O)c(Cl)c3)cc2c1N[C@H]1CC[C@H](CCN(C)C)CC1 [Example 741, 1-(6-(3-chloro-5-fluoro-4-hydroxyphenyl)-4-((trans-4-(2-(dimethylamino)ethyl)cyclohexyl)amino)quinolin-3-yl)ethanone] | 0.085 | 0.062 | 0.037 | 2 | 0.0048 | 
20 | COc1cc(-c2ccc3ncc(C(=O)C4CC4)c(Nc4cccc(CCN(C)C)c4)c3c2)cc(Cl)c1O [Example 692, (6-(3-chloro-4-hydroxy-5-methoxyphenyl)-4-(3-(2-(dimethylamino)ethyl)phenylamino)quinolin-3-yl)(cyclopropyl)methanone] | 0.37 | 0.3 | 1 | 5.9 | 0.0056 | 
21 | COc1cc(-c2ccc3ncc(C(=O)C4CC4)c(Nc4ccc(N5CCC[C@H](N)C5)nc4)c3c2)cc(Cl)c1O [Example 660, (S)-(4-(6-(3-aminopiperidin-1-yl)pyridin-3-ylamino)-6-(3-chloro-4-hydroxy-5-methoxyphenyl)quinolin-3-yl)(cyclopropyl)methanone] | 0.22 | 0.046 | 0.1 | 2.9 | 0.0024 | 
22 | CC1(N)CCC(Nc2c(C(=O)C3CC3)cnc3ccc(-c4cc(Cl)c(O)c(Cl)c4)cc23)CC1 (stereo not shown) [Example 638, [4-(4-Amino-4-methylcyclohexylamino)-6-(3,5-dichloro-4-hydroxyphenyl)quinolin-3-yl](cyclopropyl)methanone] | 0.12 | 0.022 | 0.1 | 0.67 | 0.0034 | 
23 | NCCOc1ccc(Nc2c(C(=O)C3CC3)cnc3ccc(-c4cc(F)c(O)c(Cl)c4)cc23)cn1 [Example 724, (4-(6-(2-Aminoethoxy)pyridin-3-ylamino)-6-(3-chloro-5-fluoro-4-hydroxyphenyl)quinolin-3-yl)(cyclopropyl)methanone] | 0.23 | 0.035 | 0.07 | 2.8 | 0.0055 | 
